Laboratory results taken from patent publication US6518302B1, “Remedies” (Takara Shuzo Co., Ltd., priority 1999, dated 2003).
Like-named read-outs stand apart in the source and are kept apart here.

Legend:
[1] = system: Human promyelocytic leukemia HL-60 cells; test: Antiproliferation activity against HL-60 cells (MTT method); format: cell-based; settings: 48 hour incubation
Protocol: Human promyelocytic leukemia HL-60 cells (ATCC CCL-240) were cultured at 37° C. in RPMI 1640 medium (Gibco) containing 10% of fetal calf serum (JRH Bioscience) which had been treated at 56° C. for 30 minutes, and suspended in the same medium at a concentration of 5000 cells/90 μl. Each 90 μl portion of the suspension was distributed into each well of a 96-well plate (Falcon). To the suspension in each well was added 10 μl of one the following samples, and incubated at 37° C. in the presence of 5% CO2. The samples were 2-, 4-, 8-, 16-, 32-, 64- or 128-dilutions of filter-sterilized 200 mM aqueous solution of the compound (2) obtained in Example 1, 50 mM aqueous solution of the compound (7), 50 mM aqueous solution of the compound (9), 100 mM aqueous solution of the compound (11), 100 mM aqueous solution of the compound (14), 20 mM aqueous solution of the compound (17), 12.5 mM aqueous solution of the compound (19) or 12.5 mM aqueous solution of the compound (21) with sterile water, as well as water. After 48 hour from the initiation of the incubation, the numbers of viable cells calculated based on the absorbance measured according to the MTT method as described in “Apoptosis Jikken Protocol” (Syuzyun-sha, Seiichi Tanuma, ed., pp. 156 (1994)) were compared each other.

[2] = system: HL-60 (ATCC CCL-240) cells; test: Viability of HL-60 cells by Trypan Blue staining; format: cell-based; settings: Homo sapiens, read-out: Viability50, concentration that results in a viability of 50%
Protocol: HL-60 (ATCC CCL-240) cells were cultured at 37° C. in RPMI 1640 medium (Bio Whittaker) containing 10% fetal calf serum (JRH) which had been treated at 56° C. for 30 minutes and suspended in RPMI 1640 medium at a concentration of 2.5×10^5 cells/4.5 ml.
[…] each of aqueous solutions of the compound (2) at a concentration of 10, 50 or 100 mM, the compound (7) at a concentration of 500, 1000 or 1500 μM, the compound (9) at a concentration of 750, 1500 or 3000 μM, the compound (11) at a concentration of 750, 1500 or 3000 μM, or the compound (14) at a concentration of 750, 1500 or 3000 μM was added to 4.5 ml of the suspension. The mixtures were incubated at 37° C. for 24 hours in the presence of 5% CO2.
A portion of the cells cultured for 24 or 48 hours as described in Example 4 was stained with 0.4% Trypan Blue and examined under an optical microscope. The number of viable cells which were not stained and the number of dead cells which were stained blue were counted. The concentration of each of the compounds (2), (7), (9), (11) and (14) that results in a viability of 50% (Viability50 mM) was determined.

[3] = system: heme oxygenase 1 protein in RAW264.7 cells; test: Heme oxygenase 1 induction (Western blot); format: cell-based; design: key: − represents no band observed; increase in the intensity of the band is represented as follows: +−<+<++; increase in the intensity of the band is represented as follows: +−<+<++; increase in the intensity of the band is represented as follows: +−<+<++; settings: 12 hours, positive control: 5 μl of 3 mM solution in dimethyl sulfoxide added to 5 ml
Protocol: RAW264.7 cells (ATCC TIB 71) were suspended in Dulbecco's modified Eagle's medium (Bio Whittaker, 12-604F) containing 10% fetal calf serum (Gibco) at a concentration of 3×10^5 cells/ml. 5 ml of the suspension was added to each well of a 6-well microtiter plate and the plate was incubated at 37° C. overnight in the presence of 5% CO2. 50 μl of a solution containing the compound (11) or the compound (14) at a concentration of 10 mM or 5 mM in water, 5 μl of a solution containing the compound (7) at a concentration of 50 mM or 25 mM in dimethyl sulfoxide, or 5 μl of a solution containing the compound (17) at a concentration of 100 mM or 50 mM in dimethyl sulfoxide was added to the well. The plate was incubated for 12 hours. A positive control for heme oxygenase 1 induction in which 5 μl of 3 mM solution of 15-deoxy-Δ12,14 prostaglandin J2 (Cayman Chemical, 18570) in dimethyl sulfoxide was added, and a negative control in which water was added were provided. The cells were recovered by detaching the cells from the plate using a scraper and suspended in 0.1 M tris-HCl buffer (pH 7.5) containing 0.05 mM pepstatin A (Sigma, P5318), 0.2 mM leupeptin (Sigma, L2884), 1 mM phenylmethylsulfonyl fluoride (Nacalai Tesque, 273-27), 10 mM ethylenediaminetetraacetic acid disodium salt and 0.1% Triton X-100. A supernatant obtained by centrifuging the suspension after freezing and thawing was used as a protein fraction. The content of protein in the protein fraction was determined using Micro BCA Protein Assay Reagent (a product of Pierce sold by Takara Shuzo, P7411). A sample from the protein fraction prepared as described above was mixed with an equal volume of 0.125 M tris-hydrochloride buffer (pH 6.8) containing 4% sodium lauryl sulfate (SDS), 2% 2-mercaptoethanol, 0.001% Bromophenol Blue and 20% glycerol. After treatment at 100° C. for 5 minutes, a portion corresponding to 10 μg of protein was loaded on 12.5% SDS-polyacrylamide gel and electrophoresed at a constant current of 20 mA. After electrophoresis, the gel was transferred to a PVDF membrane (Millipore, IPVH000 10) at a constant voltage of 15 V for 25 minutes using a blotting buffer (containing 48 mM tris, 39 mM glycine, 20% methanol and 0.0375% SDS) and Trans-Blot SD Cell Semi-Dry blotting apparatus (Bio-Rad) according to the attached protocol. After transferring, the PVDF membrane was blocked in a solution of Block Ace (Dainippon Pharmaceutical, UK-B25) at 4 C overnight. After blocking, the membrane washed three times in phosphate buffered saline containing 0.1% Tween 20 for 15 minutes with gentle shaking. The membrane was reacted in phosphate buffered saline containing 10% Block Ace, 0.1% Tween 20 and 200 ng/ml of anti-heme oxygenase 1 antibody (N-19; Santa Cruz, sc-7696) at room temperature for 1 hour with gentle shaking, and then washed three times in phosphate buffered saline containing 0.1% Tween 20 for 15 minutes with gentle shaking. The membrane was reacted in phosphate buffered saline containing 10% Block Ace, 0.1% Tween 20 and 0.1% peroxidase-labeled rabbit anti-goat IgG (H+L) antibody (Zymed, 61-1620) at room temperature for 1 hour with gentle shaking, and then washed five times in phosphate buffered saline containing 0.1% Tween 20 for 15 minutes with gentle shaking. The PVDF membrane was stained using Western Blot Chemiluminescence Reagent Plus (a product of NEN Life Science Products sold by Daiichi Pure Chemicals, NEL103) according to the attached protocol and exposed to an X-ray film (Kodak, CAT165 1454). After exposure, the film was developed using FPM800 (Fuji Film).
The intensity of the band depended on the concentration of the sample. In the table, the intensity of the band for heme oxygenase 1 protein is expressed by the mark +. Specifically, − represents no band observed, and increase in the intensity of the band is represented as follows: +−<+<++.

[4] = system: HL-60 cells (ATCC CCL-240); test: Proliferation of HL-60 cells with or without hydroxyurea G1 arrest (WST-1); format: cell-based, Human; settings: 48 hours
Protocol: HL-60 cells (ATCC CCL-240) were suspended in RPMI 1640 medium (Bio Whittaker, 12-702F) containing 10% fetal calf serum (Gibco) and 100 μM hydroxyurea at a concentration of 5×10^5 cells/ml. 20 ml of the suspension was added to a 10-cm Petri dish. The dish was incubated at 37° C. overnight in the presence of 5% CO2 to make the cells arrest at G1 phase. The cells were collected by centrifugation and resuspended in RPMI 1640 medium containing 10% fetal calf serum (Gibco) and 100 μM hydroxyurea at a concentration of 5×10^5 cells/ml. 5 ml of the suspension was added to each well of a 6-well microtiter plate. On the other hand, as cells without the treatment with hydroxyurea, HL-60 cells were suspended in RPMI 1640 medium containing 10% fetal calf serum (Gibco) at a concentration of 1×10^5 cells/ml. 5 ml of the suspension was added to each well of a 6-well microtiter plate. 50 μl of a solution containing DGE at a concentration of 30, 22.5, 15 or 7.5 mM in water, 25 μl of a solution containing the compound (7) at a concentration of 60, 45, 30 or 15 mM in dimethyl sulfoxide, or 25 μl of a solution containing the compound (17) at a concentration of 100, 75, 50 or 25 mM in dimethyl sulfoxide was added to the well containing the cells treated with hydroxyurea. 50 μl of a solution containing DGE at a concentration of 8, 6, 4 or 2 mM in water, 25 μl of a solution containing the compound (7) at a concentration of 30, 22.5, 15 or 7.5 mM in dimethyl sulfoxide, or 25 μl of a solution containing the compound (17) at a concentration of 80, 60, 40 or 20 mM in dimethyl sulfoxide was added to the well containing the cells without the treatment with hydroxyurea. The plate was incubated for additional 48 hours. Cells collected by centrifuging the culture were suspended in 5 ml of fresh RPMI 1640 medium containing 10% fetal calf serum (Gibco). 100 μl of the suspension was used for measuring viable cell number using Premix WST-1 Cell Proliferation Assay System (Takara Shuzo, MK400).
For each of the samples, the concentration at which 50% of the proliferation is inhibited (IC50) for the cells treated with hydroxyurea was higher than that for the cells without the treatment with hydroxyurea. Table 3 summarizes IC50 (μM) for each of the samples. […] Since most of cells in a living body are arrested at G1 phase, it is considered that DGE and R-AhGal compounds (precursors of DGE) are agents less toxic to a living body.

In the case of `CC(=O)OCC1OC(OC2C(O)COC2C(O)C(O)O)C(OC(C)=O)C(OC(C)=O)C1OC(C)=O` [Compound (9), 4-O-(β-D-2,3,4,6-tetra-O-acetylgalactopyranosyl)-3,6-anhydro-D-galactose], the “antiproliferation activity against HL-60 cells” value [1] is reported as “exhibited antiproliferation activities”, the IC50 ([1]; Homo sapiens, HL-60 cells, read-out: IC50, concentration at which 50% of the proliferation is inhibited) is reported as 113 µM and the IC50 ([2]; 24 hours) is reported as 17200 µM. The IC50 ([2]; 48 hours) was 189 µM.
`CCCCC/C=C/C=C1/C(=O)C=C[C@@H]1C/C=C\CCCC(=O)O` [15-deoxy-Δ12,14 prostaglandin J2, reference compound] was tested, and the “Intensity of band for heme oxygenase 1 protein” value [3] was “+”.
Compound `O=C1C=CC(CO)OC1O` [DGE, L-glycero-1,5-epoxy-1αβ,6-dihydroxy-cis-hex-3-en-2-one, reference compound] has an IC50 ([4]; HL-60 cells arrested at G1 phase with 100 μM hydroxyurea, read-out: IC50, Cells treated with hydroxyurea) of 101 µM and an IC50 ([4]; HL-60 cells, read-out: IC50, Cells without treatment with hydroxyurea) of 49.5 µM.
